Data set [1] relates to HCMV proteins (IE1, IE2, UL44, pp65). Briefly: Western blot of HCMV proteins in infected HFFs. The data set is classed as cell-based, Human Cytomegalovirus (HCMV). The protocol: FIG. 5: Effect of Nigericin and GCV on expression of HCMV and Wnt/β-catenin signaling proteins. A. Expression of HCMV proteins in infected HFFs treated with nigericin (100 nM) and GCV (10 μM). Compounds were added after virus adsorption and cell lysates were collected for western blot at 24, 48 and 72 hpi. Control-no treatment. B. Expression of Wnt-signaling proteins was determined in non-infected (Mock), and HCMV-infected HFFs treated with nigericin (100 nM) and GCV (10 μM) at indicated time points. Representative data from three independent experiments are shown.
Cell lysates were quantified for protein content using bicinchoninic acid (BCA) protein assay kit (Pierce Chemical, Rockford, Ill.). Equivalent amount of proteins were mixed with an equal volume of 2× sample buffer (125 mM Tris-HCL, pH 6.8, 4% SDS, 20% glycerol and 5% β-mercaptoethanol) and boiled at 100° C. for 10 min (except for Wnt and pWnt detection for which samples were not boiled). Denatured proteins were resolved in Tris-glycine polyacrylamide gels (10-12%) and transferred to polyvinylidine difluoride (PVDF) membranes (Bio-Rad Laboratories, Hercules, Calif.) by electroblotting. Membranes were incubated in blocking solution [5% non-fat dry milk and 0.1% Tween-20 in PBS (PBST)] for 1 hr, washed three times with PBST, and incubated with appropriately diluted primary antibodies at 4° C. overnight. Membranes were washed with PBST and incubated with horseradish peroxidase-conjugated secondary antibodies in PBST for 1 hr at room temperature. Following washing with PBST, protein bands were visualized by chemiluminescence using SuperSignal West Dura and Pico reagents (Pierce Chemical, Rockford, Ill.). The following antibodies were used for detection of CMV proteins: mouse anti-IE1 and IE2, (MAb810); mouse anti-beta-actin antibody (Millipore, Billerica, Mass.); mouse anti-UL44 (Santa Cruz biotechnology Santa Cruz, Calif.); mouse anti-pp65 (Vector laboratories, Burlingame, Calif.); horseradish peroxidase (HRP)-conjugated anti-rabbit IgG (Cell Signaling Technology, Beverly, Mass.); and HRP-conjugated anti-mouse IgG, (GE Healthcare, Waukesha, Wis.). The following antibodies were used for detection of proteins in the Wnt pathway: anti-Wnt5a/b, Wnt, phospho-Wnt, Dvl2, Dvl3 and axin1 (Cell Signaling), β-catenin (E-5) (Santa Cruz biotechnology).
For orientation: In western blotting, separated proteins are transferred to a membrane and probed.

The next data set concerns HSV1 clinical isolates. Briefly: HSV1 plaque assay in Vero cells. The data set is classed as cell-based. The note with it: Human alphaherpesvirus 1, 48 h; Vero cells, 200 PFU/well, plaques counted after 2 days; read-out: HSV1 EC50 (μM) Plaque Number (Vero).
Data set [2] concerns pp28-luciferase HCMV Towne strain. As to the kind of experiment: microbe, parasite or virus in culture. The data set is classed as cell-based, Human Cytomegalovirus (HCMV). The protocol:
The pp28-luciferase HCMV Towne strain was constructed as previously described (14). This virus expresses luciferase under the control of the late CMV gene promoter, pp28. Luciferase expression is strongly activated 48-72 hours post infection (hpi). […] A GCV-resistant HCMV strain was obtained from a patient with CMV disease. […] Human herpes virus strains were: luciferase HSV1-KOS/Dlux/oriS (15) and clinical isolates of HSV1 and HSV2. All clinical isolates were provided by the clinical virology laboratory with no identifiers that can link to a specific subject. The Johns Hopkins Office of Human Subject Research Institutional Review Board determined that this research qualified for an exemption.
Human Foreskin Fibroblasts (HFFs) passage 12-16 (ATCC, CRL-2088™) were grown in Dulbecco's Modified Eagle Medium (DMEM) containing 10% fetal bovine serum (FBS) (Gibco, Carlsbad, Calif.) in a 5% CO2 incubator at 37° C. and used for infection with HCMV or HSV at multiplicity of infection of 1 PFU/cell (MOI=1) unless otherwise specified. Following 90 minute adsorption (60 min for HSV), media was removed and cells were washed with PBS. DMEM with 4% FBS containing compounds was added to each well. For HCMV, infected, treated HFFs were collected at 72 hpi and lysates were assayed for luciferase activity using a luciferase assay kit (Promega, Madison, Wis.) on GloMax®-Multi+ Detection System (Promega) according to manufacturer's instructions.

Data set [3] has as its system luciferase HSV1-KOS/Dlux/oriS. As to the kind of experiment: HSV1-KOS/Dlux/oriS yield reduction assay in HFFs. The data set is classed as cell-based. The note with it: Human alphaherpesvirus 1, 16 h, read-out: HSV1 EC50 (μM) Yield Reduction (HFFs).
A short description of the next data set: in vitro. The note with it: human.

Molecules are shown by their SMILES.

Protocol for in vitro: Cell viability was determined using a colorimetric MTT cell proliferation assay following manufacturer's instructions (Sigma-Aldrich, St. Louis, Mo.). HFFs were treated with varying concentrations of monensin, nigericin, and salinomycin and incubated at 37° C. for 3 days. After the addition of 20 μl/well of MTT (3-(4,5-Dimethyl-2-thiazolyl)-2,5-diphenyl-2H-tetrazolim bromide) (5 mg/ml in PBS), and shaking at 150 rpm for 5 minutes the plates were incubated at 37° C. for 3 hours. Conversion of yellow solution into dark blue formazan by mitochondrial dehydrogenases of living cells was quantified by measuring absorbance at 570 nm. Viable cells in culture medium containing vehicle alone (0.1% DMSO) were referred to as 100% cell viability. For each cell type used for virus infection and drug treatment, the MTT assay was performed at the same time points as the antiviral assay.

Turning to `CO[C@@H]1C[C@@H](C[C@H]2CC[C@H](C)[C@H]([C@@H](C)C(=O)O)O2)O[C@]2(O[C@](C)([C@H]3CC[C@@](C)([C@@H]4O[C@@H]([C@H]5O[C@@](O)(CO)[C@H](C)C[C@@H]5C)C[C@@H]4C)O3)C[C@H]2C)[C@@H]1C` [Nigericin, nigericin], in data set [1] (100 nM), the “expression of the late HCMV gene pp65” value is “significant inhibition”. For the same molecule, the IE1 expression entry in data set [1] (100 nM, 24, 48 and 72 hpi) is “no obvious inhibition”. The IE2 expression entry in data set [1] (100 nM, 24, 48 and 72 hpi) is given as “major inhibition”. Further, the UL44 expression entry in data set [1] (100 nM, 24, 48 and 72 hpi) is reported as “major inhibition”. The EC50 in the data set on HSV1 clinical isolates was 0.63 µM; in data set [2] (Human betaherpesvirus 5, read-out: EC50 (μM), anti-HCMV activity), 0.02 µM; in data set [3], 0.08 µM. Further, the “SI (selectivity index)” value in data set [2] (HCMV in HFFs, mean ± SD) was 139 ± 23. In “in vitro”, the CC50 at 3 days amounted to 3.35 ± 0.77 µM.

Usually EC50 stands for the concentration that produces a half-maximal response.
